# Measured values taken from patent US9518018B2, “3-alkoxy, thioalkyl and amino-4-amino-6-(substituted)picolinates and their use as herbicides” (Dow AgroSciences LLC, priority 2011, dated 2016).
# Test system: desired test plant species
# Test: Foliar-applied postemergence herbicidal activity in direct seeded rice (Table 6)
# Format: in vivo
# Conditions: 21 DAA
# Text: Seeds or nutlets of the desired test plant species were planted in a soil matrix prepared by mixing a loam soil (43 percent silt, 19 percent clay, and 38 percent sand, with a pH of about 8.1 and an organic matter content of about 1.5 percent) and river sand in an 80 to 20 ratio. The soil matrix was contained in plastic pots with a surface area of 139.7 cm^2. When required to ensure good germination and healthy plants, a fungicide treatment and/or other chemical or physical treatment was applied. The plants were grown for 10-17 d in a greenhouse with an approximate 14-h photoperiod which was maintained at about 29° C. during the day and 26° C. during the night. Nutrients and water were added on a regular basis and supplemental lighting was provided with overhead metal halide 1000-Watt lamps as necessary. The plants were employed for testing when they reached the second or third true leaf stage. Treatments consisted of compounds 45, 34, and 66. Weighed amounts of technical compounds were placed in individual 25 mL glass vials and dissolved in 8 mL of 97:3 v/v acetone-DMSO to obtain stock solutions. […] The spray application solutions were prepared by removing 4 mL of the stock solution and diluting with 4 mL of 97:3 v/v acetone-DMSO and continued serial dilution to obtain 1⁄2×, 1⁄4×, 1⁄8×, and 1/16× rates of the high rate. Spray solutions were diluted to the appropriate final concentrations with the addition of 8 mL of an aqueous mixture of 1.875% (v/v) Agri-dex crop oil concentrate. The final 12-mL spray solutions each contained 1.25% (v/v) Agri-dex crop oil concentrate, 32.3% acetone, and 1.0% DMSO. Compound requirements are based upon a 12 mL application volume at a rate of 187 L/ha. Spray solutions were applied to the plant material with an overhead Mandel track sprayer equipped with […] nozzles calibrated to deliver 187 L/ha over an application area of 0.503 square meters (m^2) at a spray height of 18 inches ([…]) above average plant canopy height. Control plants were sprayed in the same manner with the solvent blank. The treated plants and control plants were placed in a greenhouse as described above and watered by sub-irrigation to prevent wash-off of the test compounds. After approximately 3 weeks, the condition of the test plants, compared with that of the untreated plants, was determined visually and scored on a scale of 0 to 100 percent where 0 corresponds to no injury and 100 corresponds to complete kill. By applying the well-accepted probit analysis as described by J. Berkson in Journal of the […], 48, 565 (1953) and by D. Finney in “Probit Analysis” Cambridge University Press (1952) or by plotting the mean data and fitting a logarithmic curve to the portion of the data where there was a dose response using Microsoft Excel®, the above data can be used to calculate GR50 and GR90 values, which are defined as growth reduction factors that correspond to the effective dose of herbicide required to kill or control 50 percent or 90 percent, respectively, of a target plant.
compound,measurement,setting,value
COC(=O)c1nc(-c2ccc(Cl)c(OC)c2F)c(F)c(N)c1OC [Compound 34],Mean Visual Injury (%)-21 Days After Application AESSE,"AESSE (Aeschynomene sensitiva, sensitive jointvetch), 4.38 g ae/ha",100%
same,Mean Visual Injury (%)-21 Days After Application AESSE,"AESSE (Aeschynomene sensitiva, sensitive jointvetch), 8.75 g ae/ha",100%
same,Mean Visual Injury (%)-21 Days After Application AESSE,"AESSE (Aeschynomene sensitiva, sensitive jointvetch), 17.5 g ae/ha",100%
same,Mean Visual Injury (%)-21 Days After Application AESSE,"AESSE (Aeschynomene sensitiva, sensitive jointvetch), 35 g ae/ha",100%
same,Mean Visual Injury (%)-21 Days After Application AESSE,"AESSE (Aeschynomene sensitiva, sensitive jointvetch), 70 g ae/ha",100%
same,GR50 AESSE,"AESSE (Aeschynomene sensitiva, sensitive jointvetch), dose to kill or control 50 percent",<4.38 g ae/ha
same,GR90 AESSE,"AESSE (Aeschynomene sensitiva, sensitive jointvetch), dose to kill or control 90 percent",<4.38 g ae/ha
same,Mean Visual Injury (%)-21 Days After Application BRAPP,"BRAPP (Brachiaria platyphylla, broadleaf signalgrass), 4.38 g ae/ha",73%
same,Mean Visual Injury (%)-21 Days After Application BRAPP,"BRAPP (Brachiaria platyphylla, broadleaf signalgrass), 8.75 g ae/ha",77%
same,Mean Visual Injury (%)-21 Days After Application BRAPP,"BRAPP (Brachiaria platyphylla, broadleaf signalgrass), 17.5 g ae/ha",93%
same,Mean Visual Injury (%)-21 Days After Application BRAPP,"BRAPP (Brachiaria platyphylla, broadleaf signalgrass), 35 g ae/ha",92%
same,Mean Visual Injury (%)-21 Days After Application BRAPP,"BRAPP (Brachiaria platyphylla, broadleaf signalgrass), 70 g ae/ha",93%
same,GR50 BRAPP,"BRAPP (Brachiaria platyphylla, broadleaf signalgrass), dose to kill or control 50 percent",<4.38 g ae/ha
same,GR90 BRAPP,"BRAPP (Brachiaria platyphylla, broadleaf signalgrass), dose to kill or control 90 percent",30.2 g ae/ha
same,Mean Visual Injury (%)-21 Days After Application CYPDI,"CYPDI (Cyperus difformis, small-flower flatsedge), 4.38 g ae/ha",87%
same,Mean Visual Injury (%)-21 Days After Application CYPDI,"CYPDI (Cyperus difformis, small-flower flatsedge), 8.75 g ae/ha",95%
same,Mean Visual Injury (%)-21 Days After Application CYPDI,"CYPDI (Cyperus difformis, small-flower flatsedge), 17.5 g ae/ha",100%
same,Mean Visual Injury (%)-21 Days After Application CYPDI,"CYPDI (Cyperus difformis, small-flower flatsedge), 35 g ae/ha",100%
same,Mean Visual Injury (%)-21 Days After Application CYPDI,"CYPDI (Cyperus difformis, small-flower flatsedge), 70 g ae/ha",100%
same,GR50 CYPDI,"CYPDI (Cyperus difformis, small-flower flatsedge), dose to kill or control 50 percent",<4.38 g ae/ha
same,GR90 CYPDI,"CYPDI (Cyperus difformis, small-flower flatsedge), dose to kill or control 90 percent",5.8 g ae/ha
same,Mean Visual Injury (%)-21 Days After Application CYPES,"CYPES (Cyperus esculentus, yellow nutsedge), 4.38 g ae/ha",73%
same,Mean Visual Injury (%)-21 Days After Application CYPES,"CYPES (Cyperus esculentus, yellow nutsedge), 8.75 g ae/ha",73%
same,Mean Visual Injury (%)-21 Days After Application CYPES,"CYPES (Cyperus esculentus, yellow nutsedge), 17.5 g ae/ha",85%
same,Mean Visual Injury (%)-21 Days After Application CYPES,"CYPES (Cyperus esculentus, yellow nutsedge), 35 g ae/ha",95%
same,Mean Visual Injury (%)-21 Days After Application CYPES,"CYPES (Cyperus esculentus, yellow nutsedge), 70 g ae/ha",100%
same,GR50 CYPES,"CYPES (Cyperus esculentus, yellow nutsedge), dose to kill or control 50 percent",<4.38 g ae/ha
same,GR90 CYPES,"CYPES (Cyperus esculentus, yellow nutsedge), dose to kill or control 90 percent",27.4 g ae/ha
same,Mean Visual Injury (%)-21 Days After Application CYPIR,"CYPIR (Cyperus iria, rice flatsedge), 4.38 g ae/ha",83%
same,Mean Visual Injury (%)-21 Days After Application CYPIR,"CYPIR (Cyperus iria, rice flatsedge), 8.75 g ae/ha",97%
same,Mean Visual Injury (%)-21 Days After Application CYPIR,"CYPIR (Cyperus iria, rice flatsedge), 17.5 g ae/ha",98%
same,Mean Visual Injury (%)-21 Days After Application CYPIR,"CYPIR (Cyperus iria, rice flatsedge), 35 g ae/ha",100%
same,Mean Visual Injury (%)-21 Days After Application CYPIR,"CYPIR (Cyperus iria, rice flatsedge), 70 g ae/ha",100%
same,GR50 CYPIR,"CYPIR (Cyperus iria, rice flatsedge), dose to kill or control 50 percent",<4.38 g ae/ha
same,GR90 CYPIR,"CYPIR (Cyperus iria, rice flatsedge), dose to kill or control 90 percent",6.7 g ae/ha
same,Mean Visual Injury (%)-21 Days After Application ECHCG,"ECHCG (Echinochloa crus-galli, barnyardgrass), 4.38 g ae/ha",93%
same,Mean Visual Injury (%)-21 Days After Application ECHCG,"ECHCG (Echinochloa crus-galli, barnyardgrass), 8.75 g ae/ha",93%
same,Mean Visual Injury (%)-21 Days After Application ECHCG,"ECHCG (Echinochloa crus-galli, barnyardgrass), 17.5 g ae/ha",96%
same,Mean Visual Injury (%)-21 Days After Application ECHCG,"ECHCG (Echinochloa crus-galli, barnyardgrass), 35 g ae/ha",98%
same,Mean Visual Injury (%)-21 Days After Application ECHCG,"ECHCG (Echinochloa crus-galli, barnyardgrass), 70 g ae/ha",95%
same,GR50 ECHCG,"ECHCG (Echinochloa crus-galli, barnyardgrass), dose to kill or control 50 percent",<4.38 g ae/ha
same,GR90 ECHCG,"ECHCG (Echinochloa crus-galli, barnyardgrass), dose to kill or control 90 percent",<4.38 g ae/ha
same,Mean Visual Injury (%)-21 Days After Application ECHCO,"ECHCO (Echinochloa colonum, junglerice), 4.38 g ae/ha",70%
same,Mean Visual Injury (%)-21 Days After Application ECHCO,"ECHCO (Echinochloa colonum, junglerice), 8.75 g ae/ha",80%
same,Mean Visual Injury (%)-21 Days After Application ECHCO,"ECHCO (Echinochloa colonum, junglerice), 17.5 g ae/ha",92%
same,Mean Visual Injury (%)-21 Days After Application ECHCO,"ECHCO (Echinochloa colonum, junglerice), 35 g ae/ha",97%
same,Mean Visual Injury (%)-21 Days After Application ECHCO,"ECHCO (Echinochloa colonum, junglerice), 70 g ae/ha",98%
same,GR50 ECHCO,"ECHCO (Echinochloa colonum, junglerice), dose to kill or control 50 percent",<4.38 g ae/ha
same,GR90 ECHCO,"ECHCO (Echinochloa colonum, junglerice), dose to kill or control 90 percent",18.6 g ae/ha
same,Mean Visual Injury (%)-21 Days After Application LEFCH,"LEFCH (Leptochloa chinensis, Chinese sprangletop), 4.38 g ae/ha",0%
same,Mean Visual Injury (%)-21 Days After Application LEFCH,"LEFCH (Leptochloa chinensis, Chinese sprangletop), 8.75 g ae/ha",17%
same,Mean Visual Injury (%)-21 Days After Application LEFCH,"LEFCH (Leptochloa chinensis, Chinese sprangletop), 17.5 g ae/ha",30%
same,Mean Visual Injury (%)-21 Days After Application LEFCH,"LEFCH (Leptochloa chinensis, Chinese sprangletop), 35 g ae/ha",40%
same,Mean Visual Injury (%)-21 Days After Application LEFCH,"LEFCH (Leptochloa chinensis, Chinese sprangletop), 70 g ae/ha",37%
same,GR50 LEFCH,"LEFCH (Leptochloa chinensis, Chinese sprangletop), dose to kill or control 50 percent",>70 g ae/ha
same,GR90 LEFCH,"LEFCH (Leptochloa chinensis, Chinese sprangletop), dose to kill or control 90 percent",>70 g ae/ha
same,Mean Visual Injury (%)-21 Days After Application ORYSA ‘Clearfield 171’,"ORYSA (Oryza sativa ‘Clearfield 171’, rice), 4.38 g ae/ha",0%
same,Mean Visual Injury (%)-21 Days After Application ORYSA ‘Clearfield 171’,"ORYSA (Oryza sativa ‘Clearfield 171’, rice), 8.75 g ae/ha",3%
same,Mean Visual Injury (%)-21 Days After Application ORYSA ‘Clearfield 171’,"ORYSA (Oryza sativa ‘Clearfield 171’, rice), 17.5 g ae/ha",12%
same,Mean Visual Injury (%)-21 Days After Application ORYSA ‘Clearfield 171’,"ORYSA (Oryza sativa ‘Clearfield 171’, rice), 35 g ae/ha",23%
same,Mean Visual Injury (%)-21 Days After Application ORYSA ‘Clearfield 171’,"ORYSA (Oryza sativa ‘Clearfield 171’, rice), 70 g ae/ha",22%
same,GR50 ORYSA ‘Clearfield 171’,"ORYSA (Oryza sativa ‘Clearfield 171’, rice), dose to kill or control 50 percent",>70 g ae/ha
same,GR90 ORYSA ‘Clearfield 171’,"ORYSA (Oryza sativa ‘Clearfield 171’, rice), dose to kill or control 90 percent",>70 g ae/ha
same,Mean Visual Injury (%)-21 Days After Application ORYSA ‘Wells’,"ORYSA (Oryza sativa ‘Wells’, rice), 4.38 g ae/ha",0%
same,Mean Visual Injury (%)-21 Days After Application ORYSA ‘Wells’,"ORYSA (Oryza sativa ‘Wells’, rice), 8.75 g ae/ha",0%
same,Mean Visual Injury (%)-21 Days After Application ORYSA ‘Wells’,"ORYSA (Oryza sativa ‘Wells’, rice), 17.5 g ae/ha",3%
same,Mean Visual Injury (%)-21 Days After Application ORYSA ‘Wells’,"ORYSA (Oryza sativa ‘Wells’, rice), 35 g ae/ha",8%
same,Mean Visual Injury (%)-21 Days After Application ORYSA ‘Wells’,"ORYSA (Oryza sativa ‘Wells’, rice), 70 g ae/ha",7%
same,GR50 ORYSA ‘Wells’,"ORYSA (Oryza sativa ‘Wells’, rice), dose to kill or control 50 percent",>70 g ae/ha
same,GR90 ORYSA ‘Wells’,"ORYSA (Oryza sativa ‘Wells’, rice), dose to kill or control 90 percent",>70 g ae/ha
same,Mean Visual Injury (%)-21 Days After Application SCPJU,"SCPJU (Scirpus juncoides, Japanese bulrush), 4.38 g ae/ha",100%
same,Mean Visual Injury (%)-21 Days After Application SCPJU,"SCPJU (Scirpus juncoides, Japanese bulrush), 8.75 g ae/ha",100%
same,Mean Visual Injury (%)-21 Days After Application SCPJU,"SCPJU (Scirpus juncoides, Japanese bulrush), 17.5 g ae/ha",100%
same,Mean Visual Injury (%)-21 Days After Application SCPJU,"SCPJU (Scirpus juncoides, Japanese bulrush), 35 g ae/ha",100%
same,Mean Visual Injury (%)-21 Days After Application SCPJU,"SCPJU (Scirpus juncoides, Japanese bulrush), 70 g ae/ha",100%
same,GR50 SCPJU,"SCPJU (Scirpus juncoides, Japanese bulrush), dose to kill or control 50 percent",<4.38 g ae/ha
same,GR90 SCPJU,"SCPJU (Scirpus juncoides, Japanese bulrush), dose to kill or control 90 percent",<4.38 g ae/ha
same,Mean Visual Injury (%)-21 Days After Application SEBEX,"SEBEX (Sesbania exaltata, hemp sesbania), 4.38 g ae/ha",100%
same,Mean Visual Injury (%)-21 Days After Application SEBEX,"SEBEX (Sesbania exaltata, hemp sesbania), 8.75 g ae/ha",100%
same,Mean Visual Injury (%)-21 Days After Application SEBEX,"SEBEX (Sesbania exaltata, hemp sesbania), 17.5 g ae/ha",100%
same,Mean Visual Injury (%)-21 Days After Application SEBEX,"SEBEX (Sesbania exaltata, hemp sesbania), 35 g ae/ha",100%
same,Mean Visual Injury (%)-21 Days After Application SEBEX,"SEBEX (Sesbania exaltata, hemp sesbania), 70 g ae/ha",100%
same,GR50 SEBEX,"SEBEX (Sesbania exaltata, hemp sesbania), dose to kill or control 50 percent",<4.38 g ae/ha
same,GR90 SEBEX,"SEBEX (Sesbania exaltata, hemp sesbania), dose to kill or control 90 percent",<4.38 g ae/ha
